Data taken from BindingDB's records for doi:10.1016/j.ejmech.2008.01.010 (Universit&#233, 2008).
Structures can show the parent of a compound that is named as a salt.

What was measured:
[1] = biological target: Vascular endothelial growth factor receptor 2 (Homo sapiens, UniProt P35968); test: Inhibition of KDR
[2] = biological target: Insulin-like growth factor 1 receptor (Homo sapiens, UniProt P08069); test: Inhibition of IGF1R
[3] = biological target: Hepatocyte growth factor receptor (Homo sapiens, UniProt P08581); test: Inhibition of cMet
[4] = biological target: Proto-oncogene tyrosine-protein kinase receptor Ret (Homo sapiens, UniProt P07949); test: Inhibition of Ret
[5] = biological target: Proto-oncogene tyrosine-protein kinase Src (Homo sapiens, UniProt P12931); test: Inhibition of Src
Chain of Proto-oncogene tyrosine-protein kinase Src (P12931 2-536 limits assumed): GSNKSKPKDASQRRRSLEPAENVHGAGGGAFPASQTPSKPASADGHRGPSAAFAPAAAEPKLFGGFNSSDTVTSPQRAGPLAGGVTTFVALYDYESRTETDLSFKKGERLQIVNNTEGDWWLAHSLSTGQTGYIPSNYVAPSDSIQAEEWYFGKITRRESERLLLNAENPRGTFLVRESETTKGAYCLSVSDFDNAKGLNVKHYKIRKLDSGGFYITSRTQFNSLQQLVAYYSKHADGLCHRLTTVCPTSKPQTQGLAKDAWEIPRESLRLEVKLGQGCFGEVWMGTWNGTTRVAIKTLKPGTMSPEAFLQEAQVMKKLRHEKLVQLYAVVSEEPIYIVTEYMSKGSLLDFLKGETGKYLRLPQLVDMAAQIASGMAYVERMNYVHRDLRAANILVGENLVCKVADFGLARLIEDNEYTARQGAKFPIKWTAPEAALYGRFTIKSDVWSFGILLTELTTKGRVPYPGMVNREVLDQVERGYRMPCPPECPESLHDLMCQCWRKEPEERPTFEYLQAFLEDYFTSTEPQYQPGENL

[6] = biological target: Tyrosine-protein kinase ABL1 (Homo sapiens, UniProt P00519); test: Inhibition of c-Abl
Chain of Tyrosine-protein kinase ABL1 (P00519 whole entry): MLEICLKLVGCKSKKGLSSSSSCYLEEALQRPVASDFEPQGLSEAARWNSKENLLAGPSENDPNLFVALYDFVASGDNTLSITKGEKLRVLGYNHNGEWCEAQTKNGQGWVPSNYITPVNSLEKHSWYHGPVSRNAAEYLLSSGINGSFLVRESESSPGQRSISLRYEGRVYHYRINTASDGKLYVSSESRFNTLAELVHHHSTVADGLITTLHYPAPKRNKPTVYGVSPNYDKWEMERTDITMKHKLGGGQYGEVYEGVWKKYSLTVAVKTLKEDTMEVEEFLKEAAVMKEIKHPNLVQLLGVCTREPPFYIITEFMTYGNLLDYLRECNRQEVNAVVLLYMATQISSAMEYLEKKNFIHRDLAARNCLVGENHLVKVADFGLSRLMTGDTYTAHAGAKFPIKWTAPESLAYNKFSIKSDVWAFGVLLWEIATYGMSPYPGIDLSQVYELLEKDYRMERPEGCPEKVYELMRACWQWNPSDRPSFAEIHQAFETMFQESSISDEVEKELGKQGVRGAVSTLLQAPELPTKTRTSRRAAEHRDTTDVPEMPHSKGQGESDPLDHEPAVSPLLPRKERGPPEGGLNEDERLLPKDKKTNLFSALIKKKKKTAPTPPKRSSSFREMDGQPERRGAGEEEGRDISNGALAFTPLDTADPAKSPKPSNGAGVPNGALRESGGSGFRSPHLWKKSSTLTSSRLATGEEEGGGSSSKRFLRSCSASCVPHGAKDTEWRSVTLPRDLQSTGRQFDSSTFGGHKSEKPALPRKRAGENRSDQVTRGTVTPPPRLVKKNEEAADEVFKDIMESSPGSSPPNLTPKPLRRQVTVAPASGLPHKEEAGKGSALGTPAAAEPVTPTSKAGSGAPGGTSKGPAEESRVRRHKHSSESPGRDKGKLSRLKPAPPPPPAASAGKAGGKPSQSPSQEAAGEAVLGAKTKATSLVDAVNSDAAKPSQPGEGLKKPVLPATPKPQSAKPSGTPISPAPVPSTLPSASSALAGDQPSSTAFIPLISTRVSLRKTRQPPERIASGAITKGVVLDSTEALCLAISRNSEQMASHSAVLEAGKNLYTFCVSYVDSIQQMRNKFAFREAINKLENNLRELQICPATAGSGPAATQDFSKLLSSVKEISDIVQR

Measured: IC50

Chain of Insulin-like growth factor 1 receptor (P08069 31-736 limits assumed): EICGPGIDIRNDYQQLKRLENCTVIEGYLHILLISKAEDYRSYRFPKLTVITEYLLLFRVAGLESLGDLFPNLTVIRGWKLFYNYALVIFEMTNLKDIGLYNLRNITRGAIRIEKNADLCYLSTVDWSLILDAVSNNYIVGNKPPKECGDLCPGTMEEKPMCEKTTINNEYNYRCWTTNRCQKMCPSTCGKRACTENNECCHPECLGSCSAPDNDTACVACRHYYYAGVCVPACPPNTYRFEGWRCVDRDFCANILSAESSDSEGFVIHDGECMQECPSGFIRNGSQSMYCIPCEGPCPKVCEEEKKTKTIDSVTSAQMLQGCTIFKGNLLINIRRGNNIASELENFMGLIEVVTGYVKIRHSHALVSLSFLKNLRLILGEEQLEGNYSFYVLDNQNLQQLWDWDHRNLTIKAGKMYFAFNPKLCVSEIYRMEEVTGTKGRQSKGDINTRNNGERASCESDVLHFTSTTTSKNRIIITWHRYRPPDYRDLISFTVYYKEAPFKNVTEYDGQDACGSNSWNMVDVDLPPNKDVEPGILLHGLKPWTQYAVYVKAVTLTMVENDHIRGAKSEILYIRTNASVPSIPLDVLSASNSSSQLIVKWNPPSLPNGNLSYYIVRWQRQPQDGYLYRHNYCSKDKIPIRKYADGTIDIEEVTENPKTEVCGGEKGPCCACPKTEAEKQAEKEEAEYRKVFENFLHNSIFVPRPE
Chain of Insulin-like growth factor 1 receptor (P08069 741-1367 limits assumed): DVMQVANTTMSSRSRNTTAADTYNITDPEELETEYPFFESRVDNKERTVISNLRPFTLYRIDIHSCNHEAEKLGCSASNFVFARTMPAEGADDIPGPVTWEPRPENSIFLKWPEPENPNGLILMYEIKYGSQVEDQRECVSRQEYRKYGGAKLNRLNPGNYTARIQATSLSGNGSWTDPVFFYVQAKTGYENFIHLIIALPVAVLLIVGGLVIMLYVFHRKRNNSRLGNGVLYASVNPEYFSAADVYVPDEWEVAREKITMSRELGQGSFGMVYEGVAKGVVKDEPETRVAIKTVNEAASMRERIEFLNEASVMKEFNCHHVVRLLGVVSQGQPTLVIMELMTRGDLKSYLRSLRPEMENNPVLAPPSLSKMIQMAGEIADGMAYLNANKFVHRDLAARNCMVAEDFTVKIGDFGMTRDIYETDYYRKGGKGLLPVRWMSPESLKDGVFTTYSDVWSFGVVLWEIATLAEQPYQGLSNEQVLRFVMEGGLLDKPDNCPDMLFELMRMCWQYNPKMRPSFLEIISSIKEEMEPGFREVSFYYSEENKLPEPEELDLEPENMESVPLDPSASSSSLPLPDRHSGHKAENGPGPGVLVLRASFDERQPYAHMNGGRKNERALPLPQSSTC
Chain of Vascular endothelial growth factor receptor 2 (P35968 whole entry): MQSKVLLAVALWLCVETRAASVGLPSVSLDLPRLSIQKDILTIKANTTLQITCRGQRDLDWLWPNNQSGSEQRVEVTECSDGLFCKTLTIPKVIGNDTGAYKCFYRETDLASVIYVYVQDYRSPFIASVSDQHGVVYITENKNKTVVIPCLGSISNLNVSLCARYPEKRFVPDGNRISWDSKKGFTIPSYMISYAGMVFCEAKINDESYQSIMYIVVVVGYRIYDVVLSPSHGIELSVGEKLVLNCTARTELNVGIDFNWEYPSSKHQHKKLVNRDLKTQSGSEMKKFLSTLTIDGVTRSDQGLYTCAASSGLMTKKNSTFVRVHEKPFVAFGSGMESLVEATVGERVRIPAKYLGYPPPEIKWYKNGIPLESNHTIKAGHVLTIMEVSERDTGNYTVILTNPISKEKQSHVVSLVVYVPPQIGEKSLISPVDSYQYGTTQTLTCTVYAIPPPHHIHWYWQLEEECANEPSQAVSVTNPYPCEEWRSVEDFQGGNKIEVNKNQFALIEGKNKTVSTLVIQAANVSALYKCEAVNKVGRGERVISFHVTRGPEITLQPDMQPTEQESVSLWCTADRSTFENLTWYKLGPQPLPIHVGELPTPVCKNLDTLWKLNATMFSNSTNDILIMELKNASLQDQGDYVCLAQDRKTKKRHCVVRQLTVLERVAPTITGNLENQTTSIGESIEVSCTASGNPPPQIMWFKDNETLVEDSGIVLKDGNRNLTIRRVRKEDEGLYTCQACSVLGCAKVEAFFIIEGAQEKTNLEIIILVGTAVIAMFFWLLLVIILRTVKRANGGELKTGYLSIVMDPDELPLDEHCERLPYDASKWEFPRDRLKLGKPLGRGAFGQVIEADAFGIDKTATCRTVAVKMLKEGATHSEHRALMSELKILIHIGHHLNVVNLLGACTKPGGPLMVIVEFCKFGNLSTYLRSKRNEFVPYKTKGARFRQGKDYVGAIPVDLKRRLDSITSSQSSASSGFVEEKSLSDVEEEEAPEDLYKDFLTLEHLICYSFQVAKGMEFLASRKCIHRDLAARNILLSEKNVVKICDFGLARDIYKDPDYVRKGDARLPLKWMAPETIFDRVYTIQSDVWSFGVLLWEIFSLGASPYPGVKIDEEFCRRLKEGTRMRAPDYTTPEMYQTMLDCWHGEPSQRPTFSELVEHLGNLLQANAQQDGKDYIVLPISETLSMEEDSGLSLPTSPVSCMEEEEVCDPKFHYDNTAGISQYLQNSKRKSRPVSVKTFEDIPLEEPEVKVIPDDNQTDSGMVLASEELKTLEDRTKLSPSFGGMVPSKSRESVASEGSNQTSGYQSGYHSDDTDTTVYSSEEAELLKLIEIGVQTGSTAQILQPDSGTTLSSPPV

N[C@@H](CCCCN=CC1C(=O)Nc2ccc(Br)cc21)C(=O)O (stereo partly drawn) [(Z/E)-(2S)-2-amino-6-([(5-bromo-2-oxo-indolin-3-ylidene)methyl]amino)hexanoic acid hydrochloride]
> 10 µM: all assays above

N[C@@H](CCCN=CC1C(=O)Nc2ccccc21)C(=O)O (stereo partly drawn) [(Z/E)-(2S)-2-amino-5-([(2-oxo-indolin-3-ylidene)methyl]amino)pentanoic acid hydrochloride]
> 10 µM: all assays above

N[C@@H](CCCCN=CC1C(=O)Nc2ccccc21)C(=O)O (stereo partly drawn) [(Z/E)-(2S)-2-amino-6-([(2-oxo-indolin-3-ylidene)methyl]amino)hexanoic acid hydrochloride]
> 10 µM: all assays above
